In US11684606B2, “Methods of treating generalized pustular psoriasis with an antagonist of CCR6 or CXCR2” (CHEMOCENTRYX, INC., priority 2018, dated 2023):
In brackets after ≈: the same amount, converted by molar mass. Entries after “also recorded” stand apart in the source; their conditions may differ.

Tests used:
[1] = tested on: CD4 T cells, neutrophils and inflammatory dendritic cells within IL-36-treated skin; assay: Flow cytometry of leukocytes accumulating in IL-36-treated skin; type: in vivo, mouse; settings: after 4 daily IL-36α ear injections; Compound 1.136 90 mg/kg/day s.c.; α-IL-17RA 200 μg/mouse/day i.p.; 90 mg/kg/day
Protocol: (§1) For in vivo dosing, mice were dosed subcutaneously with Compound 1.136 once daily (s.c. q.d. in 1% HPMC) at 90 mg/kg unless stated otherwise, starting at day 0 of a study. The in vivo dose was predicted based on in vitro potency and the pharmacokinetic response to a single dose in mice. The minimum antagonist concentration (at trough) to fully cover a gradient-sensing chemoattractant receptor has been determined to correspond with the IC90 concentration (Schall, T. J., and A. E. Proudfoot. 2011. Overcoming hurdles in developing successful drugs targeting chemokine receptors. Nat Rev Immunol 11: 355-363).
Flow cytometry of leukocytes. Ears or excised skin samples were digested in collagenase A and 1 U/ml DNAse I with agitation for 30 min at 37° C. Cells were then dislodged from skin, filtered through a […] sieve, washed and re-suspended in FACS buffer (PBS with 10% FBS) for analysis.
Directly conjugated Monoclonal antibodies were from R&D Systems (Minneapolis, Minn.), BioLegend (San Diego, Calif.), or eBioscience/ThermoFisher (San Diego, Calif.). CD45.2 (104) in AlexaFluor488, Ly6C (HK1.4) in PE, CD90.2 (30-H12) in Per CP-Cy5.5, TCRVγ4 (UC3-10A6) in PE-Cy7, TCRβ (H57-597) in APC, CD4 (GK1.5) in APC-eFluor-780, TCRγδ (GL3) in BV-421, LIVE/DEAD fixable Aqua stain (Molecular Probes, Eugene, Oreg.), CD11c (N418) in BV650, Ly6G (1A4) in BV711 and CD11b (M1/70) in BV785. Flow cytometry data were acquired with a Fortessa (BD Biosciences) cytometer and analyzed using FlowJo v10.2

mCCR5 = molecular target: T1, mCCR5 (Mus musculus, UniProt P51682); assay: Chemotaxis of mCCR5-transfected BaF3 cells to mCCL5; type: cell-based; settings: in serum; unit inferred
T1 construct: expressed in transfected cells; host or cells: BaF3 cells (from the earlier reading's assay name)

mCXCR2 = molecular target: T2, mCXCR2 (Mus musculus, UniProt P35343); assay: In vitro inhibition of chemotaxis, mouse bone marrow cells to mCXCL1; type: cell-based; settings: in 100% serum
T2 construct: endogenous in cells; host or cells: mouse bone marrow cells (from the earlier reading's assay name)
T2 sequence (P35343 1-359): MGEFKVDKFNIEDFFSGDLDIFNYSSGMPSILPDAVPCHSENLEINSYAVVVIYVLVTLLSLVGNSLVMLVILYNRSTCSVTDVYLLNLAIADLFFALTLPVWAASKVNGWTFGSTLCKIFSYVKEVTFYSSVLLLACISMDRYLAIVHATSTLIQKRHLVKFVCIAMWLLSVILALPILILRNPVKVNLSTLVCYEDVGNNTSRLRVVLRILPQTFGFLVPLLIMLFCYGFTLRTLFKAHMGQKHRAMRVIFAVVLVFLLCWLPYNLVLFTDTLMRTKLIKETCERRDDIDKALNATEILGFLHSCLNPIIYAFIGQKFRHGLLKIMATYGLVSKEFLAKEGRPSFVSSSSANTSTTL
Protocol: For in vitro determination of chemokine receptor inhibitor activity, Compound 1.136 was dissolved in DMSO to generate a stock concentration of 10 mM that was further diluted in chemotaxis migration buffer (HBSS, 1% BSA, 1% HEPES) to create a 10-point inhibitor gradient ranging from 100 nM-0.01 nM. Migration assay was then run in 100% mouse serum in response to rmCCL20 for CCR6 activity or rmCXCL1 for CXCR2 activity using ChemoTx plates (Neuroprobe, Gaithersburg Md.) and assessed by fluorescence staining of migrated cells with CyQuant (Thermo Fisher).

mCCR2 = molecular target: T3, mCCR2 (Mus musculus, UniProt P51683); assay: Chemotaxis of mouse bone marrow cells to mCCL2; type: cell-based; settings: in serum; unit inferred
T3 construct: endogenous in cells; host or cells: mouse bone marrow cells (from the earlier reading's assay name)

mCCR7 = molecular target: T4, mCCR7 (Mus musculus, UniProt P47774); assay: Chemotaxis of mouse splenocytes to mCCL19; type: cell-based; settings: in serum; unit inferred
T4 construct: endogenous in cells; host or cells: mouse splenocytes (from the earlier reading's assay name)
T4 sequence (P47774 25-378): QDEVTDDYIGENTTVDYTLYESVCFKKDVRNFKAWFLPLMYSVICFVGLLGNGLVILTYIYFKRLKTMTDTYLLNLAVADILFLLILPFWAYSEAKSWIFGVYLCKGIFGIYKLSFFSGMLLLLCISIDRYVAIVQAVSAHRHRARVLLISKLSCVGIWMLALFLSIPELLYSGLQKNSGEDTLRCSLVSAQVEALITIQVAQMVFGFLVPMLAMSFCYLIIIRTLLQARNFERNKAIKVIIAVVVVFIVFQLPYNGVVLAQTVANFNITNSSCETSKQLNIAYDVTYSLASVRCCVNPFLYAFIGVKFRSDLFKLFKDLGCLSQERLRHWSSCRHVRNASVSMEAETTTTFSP

mCCR9 = molecular target: T5, mCCR9 (Mus musculus, UniProt Q9WUT7); assay: Chemotaxis of mouse thymocytes to mCCL25; type: cell-based; settings: in serum; unit inferred
T5 construct: endogenous in cells; host or cells: mouse thymocytes (from the earlier reading's assay name)
T5 sequence (Q9WUT7 1-369): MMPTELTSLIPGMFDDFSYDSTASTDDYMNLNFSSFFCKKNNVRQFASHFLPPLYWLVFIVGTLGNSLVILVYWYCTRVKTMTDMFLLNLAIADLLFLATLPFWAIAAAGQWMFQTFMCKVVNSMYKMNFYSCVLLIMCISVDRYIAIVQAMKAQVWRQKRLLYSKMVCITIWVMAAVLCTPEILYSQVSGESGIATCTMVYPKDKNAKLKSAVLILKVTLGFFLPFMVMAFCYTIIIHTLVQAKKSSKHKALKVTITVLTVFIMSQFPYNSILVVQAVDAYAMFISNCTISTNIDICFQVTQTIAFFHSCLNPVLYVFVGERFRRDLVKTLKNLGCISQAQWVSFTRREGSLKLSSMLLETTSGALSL

[2] = Plasma concentrations at trough after s.c. q.d. dosing; type: in vivo; settings: Balb/c, mouse, subcutaneous, 24 hours post final dose (day 5), mice
Protocol: as §1

mCXCR4 = molecular target: T6, mCXCR4 (Mus musculus, UniProt P70658); assay: Chemotaxis of mouse BaF3-WT to mCXCL12; type: cell-based; settings: in serum; unit inferred
T6 construct: endogenous in cells; host or cells: mouse BaF3-WT cells (from the earlier reading's assay name)
T6 sequence (P70658 whole entry): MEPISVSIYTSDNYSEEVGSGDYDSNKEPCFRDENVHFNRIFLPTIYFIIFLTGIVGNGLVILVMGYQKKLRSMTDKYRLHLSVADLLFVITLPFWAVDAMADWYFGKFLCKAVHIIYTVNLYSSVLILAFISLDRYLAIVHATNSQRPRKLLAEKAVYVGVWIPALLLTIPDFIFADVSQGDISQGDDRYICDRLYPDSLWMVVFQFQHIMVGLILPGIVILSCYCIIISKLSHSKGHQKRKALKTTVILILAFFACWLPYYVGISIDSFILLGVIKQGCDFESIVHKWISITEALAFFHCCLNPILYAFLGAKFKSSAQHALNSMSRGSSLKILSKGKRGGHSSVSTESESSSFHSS

T1 sequence (P51682 whole entry): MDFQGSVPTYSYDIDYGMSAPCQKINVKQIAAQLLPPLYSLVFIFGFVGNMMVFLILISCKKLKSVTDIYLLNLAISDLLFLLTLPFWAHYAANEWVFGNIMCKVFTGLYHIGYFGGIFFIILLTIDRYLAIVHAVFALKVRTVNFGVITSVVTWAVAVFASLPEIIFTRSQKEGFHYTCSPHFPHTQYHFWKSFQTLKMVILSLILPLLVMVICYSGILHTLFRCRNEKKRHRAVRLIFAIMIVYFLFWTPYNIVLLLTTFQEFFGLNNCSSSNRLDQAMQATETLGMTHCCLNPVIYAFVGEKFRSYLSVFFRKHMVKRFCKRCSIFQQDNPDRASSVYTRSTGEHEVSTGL
T3 sequence (P51683 whole entry): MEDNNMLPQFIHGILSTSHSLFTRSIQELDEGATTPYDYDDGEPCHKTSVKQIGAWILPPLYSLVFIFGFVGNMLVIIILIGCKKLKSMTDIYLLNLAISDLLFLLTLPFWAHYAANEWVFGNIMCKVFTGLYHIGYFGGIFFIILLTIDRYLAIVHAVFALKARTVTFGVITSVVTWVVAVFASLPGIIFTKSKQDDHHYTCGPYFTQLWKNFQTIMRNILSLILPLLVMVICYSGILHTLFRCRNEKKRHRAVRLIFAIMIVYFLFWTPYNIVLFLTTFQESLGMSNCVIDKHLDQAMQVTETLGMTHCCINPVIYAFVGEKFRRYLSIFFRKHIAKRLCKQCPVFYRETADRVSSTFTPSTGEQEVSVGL

SMILES: CCC(C)(C)[C@@H](Nc1c(Nc2c(F)ccc3c2C(=O)N[C@H]3C)c(=O)c1=O)c1ccc(C)o1 [Compound 1.136]
- Accumulation of CD4+ T cells within IL-36-treated skin [1]: significantly reduced the accumulation; also recorded: significantly reduces accumulation
- Accumulation of inflammatory dendritic cells (iDC) within IL-36-treated skin [1]: significantly reduced the accumulation; also recorded: significantly reduces accumulation
- Accumulation of neutrophils within IL-36-treated skin [1]: significantly reduced the accumulation; also recorded: significantly reduces accumulation
- IC50 (mCCR5): > 10 µM
- IC50 (mCXCR2; read-out: IC50 on mouse CXCR2, in vitro inhibition of chemotaxis): 0.02 µM
- IC90 (mCXCR2; read-out: IC90 for CXCR2 inhibition): 0.145 µg/mL (≈ 0.33 µM)
- IC50 (mCCR2): > 10 µM
- IC50 (mCCR7): 6 µM
- IC50 (mCCR9): > 10 µM
- concentration at 24 h ([2]; 30 mg/kg s.c. q.d. in 1% HPMC): 267 ± 18 ng/mL
- concentration at 24 h ([2]; 60 mg/kg s.c. q.d. in 1% HPMC): 323 ± 20 ng/mL
- concentration at 24 h ([2]; 90 mg/kg s.c. q.d. in 1% HPMC): 973 ± 19 ng/mL
- IC50 (mCXCR4): > 10 µM
